These results are taken from patent publication US10106515B2, “1-(cyclopent-2-en-1-yl)-3-(2-hydroxy-3-(arylsulfonyl)phenyl)urea derivatives as CXCR2 inhibitors” (GLAXOSMITHKLINE INTELLECTUAL PROPERTY DEVELOPMENT LIMITED, priority 2014, dated 2018).

Experiment [1] has as its target T1, recombinant human CXCR2 (Homo sapiens, UniProt P25025).
T1 construct: TEV protease site; Gal4-VP16 transcription factor
T1 sequence (P25025 1-360): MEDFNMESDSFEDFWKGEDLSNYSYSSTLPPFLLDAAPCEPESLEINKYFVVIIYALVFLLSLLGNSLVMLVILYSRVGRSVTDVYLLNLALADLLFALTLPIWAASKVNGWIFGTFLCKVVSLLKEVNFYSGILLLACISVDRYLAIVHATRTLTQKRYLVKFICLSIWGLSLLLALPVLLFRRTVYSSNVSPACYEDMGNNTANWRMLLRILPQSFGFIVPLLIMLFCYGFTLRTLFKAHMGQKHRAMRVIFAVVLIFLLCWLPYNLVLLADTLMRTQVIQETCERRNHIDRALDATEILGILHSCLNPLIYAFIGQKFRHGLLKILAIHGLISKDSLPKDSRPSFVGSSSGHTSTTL
The experiment can be described thus: CXCR2 Tango assay. The format is cell-based. To be noted: mean pIC50 of multiple test results; stimulated with 80 nM hCXCL1; reporter gene blue/green emission ratio; read-out: pIC50 (CXCR2 Tango assay) (converted). An outline of the steps: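 Mean pIC50 comes from sigmoidal fits of the blue/green (460/530 nm) CCF4-AM ratio, normalized between hCXCL1-stimulated and DMSO controls. Compounds in 10-point dose response were incubated overnight at 37 °C with recombinant human CXCR2 Tango cells (~10,000/well) and 80 nM hCXCL1, with reporter read-out via arrestin-TEV release of Gal4-VP16.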
On the technique in general: A reporter such as luciferase makes a cellular process visible.

Experiment [2] concerns upregulation of CD11b in GROα stimulated neutrophils in human whole blood. As to the kind of experiment: Human whole blood assay (CD11b upregulation). Type of experiment: cell-based. As to conditions: Neutrophil, inhibition of CD11b upregulation, GROα 33 nM final, flow cytometry, read-out: pIC50 (human whole blood assay) (converted). On the procedure:
The whole blood assay tested the compounds' ability to inhibit the upregulation of CD11b in GROα stimulated neutrophils in human whole blood.
Blood was withdrawn by venipuncture from consented adults and poured into a Sterilin tube containing an anti-coagulant Heparin (10 uL/mL of blood). All the test compounds were dissolved in DMSO to 4 mM and serial diluted across the plate, 1 in 3 to provide 10 point dose response curves. The compounds were then diluted 100 fold in -PBS [Phosphate buffered saline (without Calcium Chloride and Magnesium Chloride)] after which, 1 uL was dispensed in 96 U bottom Costar plates using an FX.
10 uL of blood was transferred to the compound plate using a multi-channel pipette, gently tapped and incubated for 15 minutes, at 37° C. After 15 minutes, the stimulant GROα was diluted to 100 nM in 0.1% BSA (Albumin Bovine Serum)-PBS and 5 uL is dispensed across the whole plate for a final concentration of 33 nM. The plate was gently tapped and incubated further for 15 minutes at 37° C. The plate was placed on ice for 1 minute before addition of 10 uL of an antibody cocktail consisting of CD11b-FITC (40 ug/mL) purchased from BioLegend (address: Cambridge Bioscience, Munro House, Trafalgar Way, Bar Hill, Cambridge, UK) and CD16-PE purchased from BD Pharmingen (address: The Danby Building, Edmung Halley Road, Oxford Science Park, Oxford, UK) (stock concentration 100 tests, 2 mL stock volume is diluted 1 in 5). The plate was placed on ice for 1 hour in the dark. The cells were then fixed using 200 uL/well of 1×FACS (Flow Activated Cell Sorting) Lyse solution (Becton and Dickinson-BD) and on ice for 20 minutes in the dark. The plate was centrifuged at 1600 rpm for 5 minutes and re-suspended with 200 uL of ice cold PBS. This step was repeated twice and on the final step the plate was re-suspended with 50 uL of ice cold -PBS for flow Cytometric analysis.
Samples were run on a Becton and Dickinson (BD)-Acurri C6 Flow Cytometer using a HyperCyt sampling apparatus (IntelliCyt) with a flow rate 2 uL/sec. CD11b upregulation is monitored in neutrophils and identified using a combination of both side scatter and CD16 expression.
For orientation: A flow cytometer gives signals particle by particle.

Where a name gives a salt, the structure may show the parent alone.

With `CC(C)(C)S(=O)(=O)c1c(C#N)ccc(NC(=O)N[C@@H]2CCC=C2Cl)c1O` [Compound 94, (R)-1-(3-(tert-butylsulfonyl)-4-cyano-2-hydroxyphenyl)-3-(2-chlorocyclopent-2-en-1-yl)urea], the IC50 in experiment [1] was not above 1 nM; in experiment [2] it was 25.1 to 2510 nM.

Turning to `CC1=CCCC1NC(=O)Nc1ccc(Cl)c(S(=O)(=O)C(C)(C)CF)c1O` (stereo not shown) [Compound 104, 1-(4-chloro-3-((1-fluoro-2-methylpropan-2-yl)sulfonyl)-2-hydroxyphenyl)-3-(2-methylcyclopent-2-en-1-yl)urea], the values for the IC50 in experiment [1] and in experiment [2] were not above 10 nM and 25.1 to 2510 nM, respectively.

For `CC1=CCCC1NC(=O)Nc1ccc(Cl)c(S(=O)(=O)C2(C)CCOCC2)c1O` (stereo not shown) [Compound 107, 1-(4-chloro-2-hydroxy-3-((4-methyltetrahydro-2H-pyran-4-yl)sulfonyl)phenyl)-3-(2-methylcyclopent-2-en-1-yl)urea], the IC50 in experiment [1] is not above 10 nM; in experiment [2], 25.1 to 2510 nM.

As for `CC1=CCCC1NC(=O)Nc1ccc(Cl)c(S(=O)(=O)C2CCOCC2)c1O` (stereo not shown) [Compound 110, 1-(4-chloro-2-hydroxy-3-((tetrahydro-2H-pyran-4-yl)sulfonyl)phenyl)-3-(2-methylcyclopent-2-en-1-yl)ureac], the IC50 in experiment [1] was not above 10 nM; in experiment [2] it was 25.1 to 2510 nM.

For `CC1=CCCC1NC(=O)Nc1ccc(Cl)c(S(=O)(=O)N2CC(F)C2)c1O` (stereo not shown) [Compound 112, 1-(4-chloro-3-((3-fluoroazetidin-1-yl)sulfonyl)-2-hydroxyphenyl)-3-(2-methylcyclopent-2-en-1-yl)urea], the IC50 was not above 10 nM in experiment [1] and 25.1 to 2510 nM in experiment [2].

Take `CC1=CCCC1NC(=O)Nc1ccc(Cl)c(S(=O)(=O)N2CCC(F)(F)C2)c1O` (stereo not shown) [Compound 114, 1-(4-chloro-3-((3,3-difluoropyrrolidin-1-yl)sulfonyl)-2-hydroxyphenyl)-3-(2-methylcyclopent-2-en-1-yl)urea, trifluoroacetic acid salt]: the IC50 in experiment [1] is not above 10 nM; in experiment [2], 25.1 to 2510 nM.

For the molecule `CCC1(S(=O)(=O)c2c(Cl)ccc(NC(=O)N[C@@H]3CCC=C3C)c2O)CCOCC1` [Compound 119, (R)-1-(4-chloro-3-((4-ethyltetrahydro-2H-pyran-4-yl)sulfonyl)-2-hydroxyphenyl)-3-(2-methylcyclopent-2-en-1-yl)urea], the values for the IC50 in experiment [1] and in experiment [2] were not above 1 nM and 25.1 to 2510 nM, respectively.

Take `COC[C@@H](C)S(=O)(=O)c1c(Cl)ccc(NC(=O)N[C@@H]2CCC=C2C)c1O` [Compound 122, 1-(4-chloro-2-hydroxy-3-(((R)-1-methoxypropan-2-yl)sulfonyl)phenyl)-3-((R)-2-methylcyclopent-2-en-1-yl)urea]: the IC50 in experiment [1] was not above 1 nM; in experiment [2] it was 25.1 to 2510 nM.

Regarding `CC1=CCC[C@H]1NC(=O)Nc1ccc(C#N)c(S(=O)(=O)C(C)(C)F)c1O` [Compound 123, (R)-1-(4-cyano-3-((2-fluoropropan-2-yl)sulfonyl)-2-hydroxyphenyl)-3-(2-methylcyclopent-2-en-1-yl)urea], the IC50 was not above 1 nM in experiment [1] and 25.1 to 2510 nM in experiment [2].

On to `CC1=CCC[C@H]1NC(=O)Nc1ccc(Cl)c(S(=O)(=O)C(F)(F)CN(C)C)c1O` [Compound 136, (R)-1-(4-chloro-3-((2-(dimethylamino)-1,1-difluoroethyl)sulfonyl)-2-hydroxyphenyl)-3-(2-methylcyclopent-2-en-1-yl)urea], for which the IC50 is not above 10 nM in experiment [1] and 25.1 to 2510 nM in experiment [2].

For the molecule `CC1=CCC[C@H]1NC(=O)Nc1ccc(Cl)c(S(=O)(=O)N2CCN(C)CC2)c1O` [Compound 141, (R)-1-(4-chloro-2-hydroxy-3-((4-methylpiperazin-1-yl)sulfonyl)phenyl)-3-(2-methylcyclopent-2-en-1-yl)urea, trifluoroacetic acid salt], the figures for the IC50 in experiment [1] and in experiment [2] were not above 10 nM and 25.1 to 2510 nM, respectively.

As to `CC1=CCCC1NC(=O)Nc1ccc(Cl)c(S(=O)(=O)N2CCN(C)CC2)c1O` (stereo not shown) [Compound 142, 1-(4-chloro-2-hydroxy-3-((4-methylpiperazin-1-yl)sulfonyl)phenyl)-3-(2-methylcyclopent-2-en-1-yl)urea, trifluoroacetic acid salt], the values for the IC50 in experiment [1] and in experiment [2] were not above 10 nM and 25.1 to 2510 nM, respectively.

For the molecule `CO[C@H]1C[C@@H](S(=O)(=O)c2c(Cl)ccc(NC(=O)N[C@@H]3CCC=C3C)c2O)C1` [Compound 146, 1-(4-chloro-2-hydroxy-3-((cis-3-methoxycyclobutyl)sulfonyl)phenyl)-3-((R)-2-methylcyclopent-2-en-1-yl)urea], the IC50 in experiment [1] was not above 1 nM; in experiment [2], 25.1 to 2510 nM.

Regarding `CO[C@H]1COC[C@@H]1S(=O)(=O)c1c(Cl)ccc(NC(=O)N[C@@H]2CCC=C2C)c1O` [Compound 151, 1-(4-chloro-2-hydroxy-3-(((3S,4S)-4-methoxytetrahydro-furan-3-yl)sulfonyl)phenyl)-3-((R)-2-methylcyclopent-2-en-1-yl)urea], the results for the IC50 in experiment [1] and in experiment [2] were not above 10 nM and 25.1 to 2510 nM, respectively.

Consider `COCC(C)S(=O)(=O)c1c(Cl)ccc(NC(=O)N[C@@H]2CCC=C2C)c1O` (stereo partly drawn) [Compound 158, 1-(4-chloro-2-hydroxy-3-((1-methoxypropan-2-yl)sulfonyl)phenyl)-3-((R)-2-methylcyclopent-2-en-1-yl)urea], for which the IC50 is not above 10 nM in experiment [1] and 25.1 to 2510 nM in experiment [2].

On to `O=C(Nc1ccc(Cl)c(S(=O)(=O)[C@H]2C[C@@H](O)C2)c1O)NC1CCC=C1Cl` (stereo partly drawn) [Compound 165, 1-(4-chloro-2-hydroxy-3-((cis-3-hydroxycyclobutyl)sulfonyl)phenyl)-3-(2-chlorocyclopent-2-en-1-yl)urea], for which the IC50 in experiment [1] is not above 10 nM; in experiment [2] it was 25.1 to 2510 nM.

For the molecule `CN(C)[C@H]1C[C@H](S(=O)(=O)c2c(Cl)ccc(NC(=O)N[C@@H]3CCC=C3Cl)c2O)C1` [Compound 184, 1-(4-chloro-3-((trans-3-(dimethylamino)cyclobutyl)sulfonyl)-2-hydroxyphenyl)-3-((R)-2-chlorocyclopent-2-en-1-yl)urea, trifluoroacetic acid salt], the results for the IC50 in experiment [1] and in experiment [2] were not above 10 nM and 25.1 to 2510 nM, respectively.

As to `O=C(Nc1ccc(Cl)c(S(=O)(=O)[C@H]2C[C@H](N3CCCC3)C2)c1O)N[C@@H]1CCC=C1Cl` [Compound 185, 1-(4-chloro-2-hydroxy-3-((trans-3-(pyrrolidin-1-yl)cyclobutyl)sul-fonyl)phenyl)-3-((R)-2-chlorocyclopent-2-en-1-yl)urea, trifluoroacetic acid salt], the IC50 in experiment [1] was not above 10 nM; in experiment [2] it was 25.1 to 2510 nM.

On to `COC[C@H](C)S(=O)(=O)c1c(Cl)ccc(NC(=O)N[C@@H]2CCC=C2C)c1O` [Compound 186, 1-(4-chloro-2-hydroxy-3-(((S)-1-methoxypropan-2-yl)sulfonyl)phenyl)-3-((R)-2-methylcyclopent-2-en-1-yl)urea], for which the IC50 in experiment [1] is not above 1 nM; in experiment [2], 25.1 to 2510 nM.

As to `CC1=CCC[C@H]1NC(=O)Nc1ccc(C#N)c(S(=O)(=O)C(C)(C)C)c1O` [Compound 191, (R)-1-(3-(tert-butylsulfonyl)-4-cyano-2-hydroxyphenyl)-3-(2-methylcyclopent-2-en-1-yl)urea], the results for the IC50 in experiment [1] and in experiment [2] were not above 1 nM and 25.1 to 2510 nM, respectively.
